Broadly, the IC50 is the concentration that inhibits the measured activity by half.

PRC2 complex (EZH2 Y641F/EED/SUZ12/RbAp48/AEBP2), sequence (Q15910 whole entry Y641F): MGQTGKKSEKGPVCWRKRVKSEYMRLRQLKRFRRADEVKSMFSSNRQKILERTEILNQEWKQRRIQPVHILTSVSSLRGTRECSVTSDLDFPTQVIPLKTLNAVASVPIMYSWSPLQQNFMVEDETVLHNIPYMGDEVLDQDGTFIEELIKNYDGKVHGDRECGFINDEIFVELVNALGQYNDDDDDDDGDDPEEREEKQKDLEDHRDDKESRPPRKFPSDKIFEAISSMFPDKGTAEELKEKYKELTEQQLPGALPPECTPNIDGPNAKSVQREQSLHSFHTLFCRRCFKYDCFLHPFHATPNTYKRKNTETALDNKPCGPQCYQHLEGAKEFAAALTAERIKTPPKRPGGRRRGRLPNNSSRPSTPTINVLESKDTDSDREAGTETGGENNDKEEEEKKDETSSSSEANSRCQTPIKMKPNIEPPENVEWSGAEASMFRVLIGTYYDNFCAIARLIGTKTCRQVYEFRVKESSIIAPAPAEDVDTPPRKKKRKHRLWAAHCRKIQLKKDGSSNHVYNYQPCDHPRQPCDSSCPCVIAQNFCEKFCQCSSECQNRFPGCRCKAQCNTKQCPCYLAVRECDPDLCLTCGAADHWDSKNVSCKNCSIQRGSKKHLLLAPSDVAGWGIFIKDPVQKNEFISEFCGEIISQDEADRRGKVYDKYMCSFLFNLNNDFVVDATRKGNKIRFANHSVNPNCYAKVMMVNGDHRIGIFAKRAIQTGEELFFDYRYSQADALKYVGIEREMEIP
PRC2 complex (EZH2 Y641F/EED/SUZ12/RbAp48/AEBP2), sequence (O75530 whole entry partner): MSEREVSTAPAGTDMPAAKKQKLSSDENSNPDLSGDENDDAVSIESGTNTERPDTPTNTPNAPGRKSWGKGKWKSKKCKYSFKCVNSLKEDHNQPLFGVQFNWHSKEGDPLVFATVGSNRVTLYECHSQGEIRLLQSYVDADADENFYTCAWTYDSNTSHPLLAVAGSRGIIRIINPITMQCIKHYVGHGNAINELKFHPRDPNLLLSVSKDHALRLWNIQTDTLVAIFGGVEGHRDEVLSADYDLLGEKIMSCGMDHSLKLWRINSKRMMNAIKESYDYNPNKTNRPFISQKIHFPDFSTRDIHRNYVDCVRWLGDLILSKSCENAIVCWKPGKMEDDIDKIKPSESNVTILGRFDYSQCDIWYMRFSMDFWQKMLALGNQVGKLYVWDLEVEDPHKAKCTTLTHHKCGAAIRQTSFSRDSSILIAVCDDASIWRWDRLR
PRC2 complex (EZH2 Y641F/EED/SUZ12/RbAp48/AEBP2), sequence (Q15022 whole entry partner): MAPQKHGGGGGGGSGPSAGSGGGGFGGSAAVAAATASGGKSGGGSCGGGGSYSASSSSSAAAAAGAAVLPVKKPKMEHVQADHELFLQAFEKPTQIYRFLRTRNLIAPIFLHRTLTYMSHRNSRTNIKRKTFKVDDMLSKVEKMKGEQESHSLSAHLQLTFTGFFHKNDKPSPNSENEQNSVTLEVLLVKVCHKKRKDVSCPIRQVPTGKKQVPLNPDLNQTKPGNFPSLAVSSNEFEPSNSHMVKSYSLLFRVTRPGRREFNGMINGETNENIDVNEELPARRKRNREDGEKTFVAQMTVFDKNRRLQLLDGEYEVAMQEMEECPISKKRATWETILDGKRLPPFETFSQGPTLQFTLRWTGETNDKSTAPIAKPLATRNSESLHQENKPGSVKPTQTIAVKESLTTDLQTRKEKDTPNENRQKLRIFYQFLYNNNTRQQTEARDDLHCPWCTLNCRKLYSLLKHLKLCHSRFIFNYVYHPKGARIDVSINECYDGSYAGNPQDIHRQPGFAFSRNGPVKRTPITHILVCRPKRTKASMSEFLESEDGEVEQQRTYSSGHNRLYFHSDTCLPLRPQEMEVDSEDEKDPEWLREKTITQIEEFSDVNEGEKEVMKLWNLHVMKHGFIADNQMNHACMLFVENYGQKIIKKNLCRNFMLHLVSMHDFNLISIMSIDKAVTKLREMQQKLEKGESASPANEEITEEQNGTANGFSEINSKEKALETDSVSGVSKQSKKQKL
PRC2 complex (EZH2 Y641F/EED/SUZ12/RbAp48/AEBP2), sequence (Q09028 whole entry partner): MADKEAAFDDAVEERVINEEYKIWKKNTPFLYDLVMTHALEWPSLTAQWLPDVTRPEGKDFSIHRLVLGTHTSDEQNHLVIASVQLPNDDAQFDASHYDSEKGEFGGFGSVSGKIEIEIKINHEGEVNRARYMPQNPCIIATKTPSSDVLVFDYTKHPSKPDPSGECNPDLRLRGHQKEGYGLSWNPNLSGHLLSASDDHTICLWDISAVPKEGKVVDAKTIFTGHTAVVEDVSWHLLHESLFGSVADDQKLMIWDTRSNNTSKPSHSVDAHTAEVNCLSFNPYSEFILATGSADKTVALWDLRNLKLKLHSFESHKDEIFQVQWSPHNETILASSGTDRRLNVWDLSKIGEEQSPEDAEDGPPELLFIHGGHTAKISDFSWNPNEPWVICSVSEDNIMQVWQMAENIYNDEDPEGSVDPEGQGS
PRC2 complex (EZH2 Y641F/EED/SUZ12/RbAp48/AEBP2), sequence (Q6ZN18 whole entry partner): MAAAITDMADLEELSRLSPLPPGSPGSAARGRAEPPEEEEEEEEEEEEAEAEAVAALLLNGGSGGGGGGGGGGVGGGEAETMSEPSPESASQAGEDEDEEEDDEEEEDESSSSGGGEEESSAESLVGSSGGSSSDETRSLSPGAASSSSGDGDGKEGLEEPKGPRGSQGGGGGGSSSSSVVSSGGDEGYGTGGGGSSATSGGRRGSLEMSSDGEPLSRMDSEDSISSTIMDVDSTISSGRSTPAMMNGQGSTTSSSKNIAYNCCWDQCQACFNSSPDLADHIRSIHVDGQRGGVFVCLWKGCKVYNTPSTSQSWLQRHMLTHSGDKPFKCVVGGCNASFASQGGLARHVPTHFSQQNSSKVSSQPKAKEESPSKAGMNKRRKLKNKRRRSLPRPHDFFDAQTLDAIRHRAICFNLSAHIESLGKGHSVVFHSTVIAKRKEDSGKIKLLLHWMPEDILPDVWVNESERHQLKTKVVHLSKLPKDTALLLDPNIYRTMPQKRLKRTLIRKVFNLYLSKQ

The first test concerns the target PRC2 complex (EZH2 Y641F/EED/SUZ12/RbAp48/AEBP2) (Homo sapiens (Human), UniProt Q15910, Y641F). The test can be described thus: Activity of a compound to PRC2 complex (EZH2 Y641F), HTRF.
Conditions: not given
(In general: Time-resolved FRET reads energy transfer from a long-lived donor to a nearby acceptor.)
As to `COc1cc(-c2cc3cc(C(=O)NCc4c(C)cc(C)[nH]c4=O)c(C)c(C(C)N4CCOCC4)n3c2)cc(OC)c1OC` (centres unmarked) [Example 37, N-((4,6-dimethyl-2-oxo-1,2-dihydropyridin-3-yl)methyl)-6-methyl-5-(1-morpholinylethyl)-2-(3,4,5-trimethoxyphenyl)indolizine-7-carboxamide], the half-maximal inhibitory concentration (IC50) is < 100 nM.

Consider `Cc1cc(C)c(CNC(=O)c2cc3cc(-c4cnn(C)c4)cn3c(C(C)N3CCOCC3)c2C)c(=O)[nH]1` (centres unmarked) [Example 42, N-((4,6-dimethyl-2-oxo-1,2-dihydropyridin-3-yl)methyl)-6-methyl-2-(1-methyl-1H-pyrazol-4-yl)-5-(1-morpholinylethyl)indolizine-7-carboxamide], for which the IC50 was < 100 nM.

As to `Cc1cc(C)c(CNC(=O)c2cc3cc(-c4cccnc4)cn3c(C(C)N3CCC(N(C)C)CC3)c2C)c(=O)[nH]1` (centres unmarked) [Example 49, N-((4,6-dimethyl-2-oxo-1,2-dihydropyridin-3-yl)methyl)-5-(1-(4-(dimethylamino)piperidin-1-yl)ethyl)-6-methyl-2-(pyridin-3-yl)indolizine-7-carboxamide], the IC50 is < 100 nM.

Regarding `Cc1cc(C)c(CNC(=O)c2cc3cc(-c4cn(C)cn4)cn3c(C(C)N3CCOCC3)c2C)c(=O)[nH]1` (centres unmarked) [Example 52, N-((4,6-dimethyl-2-oxo-1,2-dihydropyridin-3-yl)methyl)-6-methyl-2-(1-methyl-1H-imidazole-4-yl)-5-(1-morpholineylethyl)indolizine-7-carboxamide], the IC50 was 100 to 1000 nM.

The test is the same for the next values; noted with them: read-out: IC50 (EZH2_Y641F); EZH2 Y641F PRC2 complex, HTRF; class symbols.
With `Cc1cc(C)c(CNC(=O)c2cc3cccn3c(C(C)OCc3ccncc3)c2C)c(=O)[nH]1` (centres unmarked) [Example 16, N-((4,6-dimethyl-2-oxo-1,2-dihydropyridin-3-yl)methyl)-6-methyl-5-(1-(pyridine-4-ylmethoxy)ethyl)indolizine-7-carboxamide], the IC50 lay within 100 to 1000 nM.

On to `Cc1cc(C)c(CNC(=O)c2cc3cccn3c(C(C)OCc3cccs3)c2C)c(=O)[nH]1` (centres unmarked) [Example 17, N-((4,6-dimethyl-2-oxo-1,2-dihydropyridin-3-yl)methyl)-6-methyl-5-(1-(thiophene-2-ylmethoxy)ethyl)indolizine-7-carboxamide], for which the IC50 is < 100 nM.

For `Cc1cc(C)c(CNC(=O)c2cc3cccn3c(C(C)OCc3ccnn3C)c2C)c(=O)[nH]1` (centres unmarked) [Example 21], the IC50 is < 100 nM.

As for `Cc1cc(C)c(CNC(=O)c2cc3cccn3c(C(C)Oc3ccc(N(C)C)cc3)c2C)c(=O)[nH]1` (centres unmarked) [Example 22], the half-maximal inhibitory concentration (IC50) fell in the range of 1000 to 10000 nM.

As for `Cc1cc(C)c(CNC(=O)c2cc3cccn3c(C(O)c3ccc(Br)cc3)c2C)c(=O)[nH]1` (centres unmarked) [Example 23, 5-((4-bromophenyl)(hydroxy)methyl)-N-((4,6-dimethyl-2-oxo-1,2-dihydropyridin-3-yl)methyl)-6-methylindolizine-7-carboxamide], the IC50 was in the range of 100 to 1000 nM.

With `COC(c1ccc(Br)cc1)c1c(C)c(C(=O)NCc2c(C)cc(C)[nH]c2=O)cc2cccn12` (centres unmarked) [Example 24, 5-((4-bromophenyl)(methoxy)methyl)-N-((4,6-dimethyl-2-oxo-1,2-dihydropyridin-3-yl)methyl)-6-methylindolizine-7-carboxamide], the half-maximal inhibitory concentration (IC50) was > 10000 nM.

As to `Cc1cc(C)c(CNC(=O)c2cc3c(Cl)ccn3c(C(C)N3CCOCC3)c2C)c(=O)[nH]1` (centres unmarked) [Example 27, 1-chloro-N-((4,6-dimethyl-2-oxo-1,2-dihydropyridin-3-yl)methyl)-6-methyl-5-(1-morphinolinylethyl)indolizine-7-carboxamide], the IC50 is < 100 nM.

As for `Cc1cc(C)c(CNC(=O)c2cc3cc(Br)cn3c(C(C)Oc3ccc(N(C)C)cc3)c2C)c(=O)[nH]1` (centres unmarked) [Example 30], the IC50 is < 100 nM.

Regarding `Cc1cc(C)c(CNC(=O)c2cc3cc(-c4ccc5c(c4)OCO5)cn3c(C(C)N3CCOCC3)c2C)c(=O)[nH]1` (centres unmarked) [Example 31, 2-(benzo[d][1,3]dioxol-5-yl)-N-((4,6-dimethyl-2-oxo-1,2-dihydropyridine-3-yl)methyl)-6-methyl-5-(1-morphinolinylethyl)indolizin-7-carboxamide], the IC50 is 100 to 1000 nM.

`Cc1cc(C)c(CNC(=O)c2cc3cc(-c4ccc(N5CCOCC5)cc4)cn3c(C(C)N3CCOCC3)c2C)c(=O)[nH]1` (centres unmarked) [Example 32, N-((4,6-dimethyl-2-oxo-1,2-dihydropyridin-3-yl)methyl)-6-methyl-5-(1-morphinolinylethyl)-2-(4-morphinolinylphenyl)indolizine-7-carboxamide]: the IC50 was < 100 nM.

Take `Cc1cc(C)c(CNC(=O)c2cc3cc(-c4cccnc4)cn3c(C(C)N3CCOCC3)c2C)c(=O)[nH]1` (centres unmarked) [Example 33, N-((4,6-dimethyl-2-oxo-1,2-dihydropyridin-3-yl)methyl)-6-methyl-5-(1-morphinolinylethyl)-2-(pyridin-3-yl)indolizine-7-carboxamide]: the IC50 was < 100 nM.

Consider `Cc1cc(C)c(CNC(=O)c2cc3cc(-c4cccc(N5CCOCC5)c4)cn3c(C(C)N3CCOCC3)c2C)c(=O)[nH]1` (centres unmarked) [Example 36, N-((4,6-dimethyl-2-oxo-1,2-dihydropyridin-3-yl)methyl)-6-methyl-5-(1-morphinolinylethyl)-2-(3-morphinolinylphenyl)indolizine-7-carboxamide], for which the IC50 is < 100 nM.

Turning to `COc1ccc(-c2cc3cc(C(=O)NCc4c(C)cc(C)[nH]c4=O)c(C)c(C(C)N4CCOCC4)n3c2)c(OC)c1` (centres unmarked) [Example 38, 2-(2,4-dimethoxyphenyl)-N-((4,6-dimethyl-2-oxo-1,2-dihydropyridin-3-yl)methyl)-6-methyl-5-(1-morphinolinylethyl)indolizine-7-carboxamide], the IC50 was < 100 nM.

Take `Cc1cc(C)c(CNC(=O)c2cc3cc(-c4ccc(CN5CCOCC5)cc4)cn3c(C(C)N3CCOCC3)c2C)c(=O)[nH]1` (centres unmarked) [Example 39, N-((4,6-dimethyl-2-oxo-1,2-dihydropyridin-3-yl)methyl)-6-methyl-5-(1-morphinolinylethyl)-2-(4-(morphinolinylmethyl)phenyl)indolizine-7-carboxamide]: the IC50 is < 100 nM.

For `Cc1cc(C)c(CNC(=O)c2cc3cc(-c4ccnn4C)cn3c(C(C)N3CCOCC3)c2C)c(=O)[nH]1` (centres unmarked) [Example 41, N-((4,6-dimethyl-2-oxo-1,2-dihydropyridin-3-yl)methyl)-6-methyl-2-(1-methyl-1H-pyrazol-5-yl)-5-(1-morpholineylethyl)indolizine-7-carboxamide], the IC50 is < 100 nM.

With `COc1ccc(-c2cc3cc(C(=O)NCc4c(C)cc(C)[nH]c4=O)c(C)c(C(C)N4CCOCC4)n3c2)c(F)c1` (centres unmarked) [Example 43, N-((4,6-dimethyl-2-oxo-1,2-dihydropyridin-3-yl)methyl)-2-(2-fluoro-4-methoxyphenyl)-6-methyl-5-(1-morphinolinylethyl)indolizine-7-carboxamide], the IC50 is < 100 nM.

For `Cc1cc(C)c(CNC(=O)c2cc3cc(-c4cnn(C5CCNCC5)c4)cn3c(C(C)N3CCOCC3)c2C)c(=O)[nH]1` (centres unmarked) [Example 44, N-((4,6-dimethyl-2-oxo-1,2-dihydropyridin-3-yl)methyl)-6-methyl-5-(1-morphinolinylethyl)-2-(1-(piperidin-4-yl)-1H-pyrazol-4-yl)indolizine-7-carboxamide], the 50% inhibitory concentration (IC50) was < 100 nM.

Take `Cc1cc(C)c(CNC(=O)c2cc3cc(C4=CCNCC4)cn3c(C(C)N3CCOCC3)c2C)c(=O)[nH]1` (centres unmarked) [Example 45, N-((4,6-dimethyl-2-oxo-1,2-dihydropyridin-3-yl)methyl)-6-methyl-5-(1-morphinolinylethyl)-2-(1,2,3,6-tetrahydropyridin-4-yl)indolizine-7-carboxamide]: the IC50 was 1000 to 10000 nM.

As to `Cc1cc(C)c(CNC(=O)c2cc3cc(C4CCNCC4)cn3c(C(C)N3CCOCC3)c2C)c(=O)[nH]1` (centres unmarked) [Example 46, N-((4,6-dimethyl-2-oxo-1,2-dihydropyridin-3-yl)methyl)-6-methyl-5-(1-morphinolinylethyl)-2-(piperidin-4-yl)indolizine-7-carboxamide], the IC50 was < 100 nM.

Turning to `Cc1cc(C)c(CNC(=O)c2cc3cc(C4=CCOCC4)cn3c(C(C)N3CCOCC3)c2C)c(=O)[nH]1` (centres unmarked) [Example 47], the 50% inhibitory concentration (IC50) fell in the range of 100 to 1000 nM.

On to `Cc1cc(C)c(CNC(=O)c2cc3cc(-c4cccnc4)cn3c(C(C)N3CCC(N(C)C)CC3)c2C)c(=O)[nH]1` (centres unmarked) [Example 48, N-((4,6-dimethyl-2-oxo-1,2-dihydropyridin-3-yl)methyl)-6-methyl-5-(1-morphinolinylethyl)-2-(tetrahydro-2H-pyran-4-yl)indolizine-7-carboxamide], for which the IC50 was < 100 nM.

Take `Cc1cc(C)c(CNC(=O)c2cc3cc(-c4nccs4)cn3c(C(C)N3CCOCC3)c2C)c(=O)[nH]1` (centres unmarked) [Example 50, N-((4,6-dimethyl-2-oxo-1,2-dihydropyridin-3-yl)methyl)-6-methyl-5-(1-morphinolinylethyl)-2-(thiazol-2-yl)indolizine-7-carboxamide]: the IC50 was < 100 nM.

In the case of `Cc1cc(C)c(CNC(=O)c2cc3cc(-c4cn(C)cn4)cn3c(C(C)N3CCOCC3)c2C)c(=O)[nH]1` (centres unmarked) [Example 51, N-((4,6-dimethyl-2-oxo-1,2-dihydropyridin-3-yl)methyl)-6-methyl-5-(1-morphinolinylethyl)-2-(pyridin-2-yl)indolizine-7-carboxamide], the IC50 is < 100 nM.

Consider `Cc1cc(C)c(CNC(=O)c2cc3c(Br)ccn3c(C(C)N3CCOCC3)c2C)c(=O)[nH]1` (centres unmarked) [Example 53, N-((4,6-dimethyl-2-oxo-1,2-dihydropyridin-3-yl)methyl)-6-methyl-5-(1-morphinolinylethyl)-2-(4,5,6,7-tetrahydrothiazolo[5,4-c]pyridin-2-yl)indolizine-7-carboxamide], for which the IC50 was < 100 nM.

For the compound `Cc1cc(C)c(CNC(=O)c2cc3c(Br)ccn3c(C(C)N3CCOCC3)c2C)c(=O)[nH]1` (centres unmarked) [Example 54, 1-bromo-N-((4,6-dimethyl-2-oxo-1,2-dihydropyridin-3-yl)methyl)-6-methyl-5-(1-morpholinylethyl)indolizine-7-carboxamide], the IC50 is < 100 nM.

The values above are taken from US10968215B2 (SHANGHAI HAIHE PHARMACEUTICAL CO., LTD., priority 2016, dated 2021).
